These results are taken from ChEMBL document CHEMBL4130400, “Development of GLUT4-selective antagonists for multiple myeloma therapy” (Eur J Med Chem, 2017).

The source made the active and inactive calls. No cut-off for these calls is given here. Where a SMILES comes first, the peptide text is derived from it. The star is where a group is joined. Cbz = O=C(OCc1ccccc1)* Some results are limits rather than exact numbers.

The first assay has as its target T1, Solute carrier family 2, facilitated glucose transporter member 8 (Homo sapiens, UniProt Q9NY64).
T1 sequence (Q9NY64 whole entry): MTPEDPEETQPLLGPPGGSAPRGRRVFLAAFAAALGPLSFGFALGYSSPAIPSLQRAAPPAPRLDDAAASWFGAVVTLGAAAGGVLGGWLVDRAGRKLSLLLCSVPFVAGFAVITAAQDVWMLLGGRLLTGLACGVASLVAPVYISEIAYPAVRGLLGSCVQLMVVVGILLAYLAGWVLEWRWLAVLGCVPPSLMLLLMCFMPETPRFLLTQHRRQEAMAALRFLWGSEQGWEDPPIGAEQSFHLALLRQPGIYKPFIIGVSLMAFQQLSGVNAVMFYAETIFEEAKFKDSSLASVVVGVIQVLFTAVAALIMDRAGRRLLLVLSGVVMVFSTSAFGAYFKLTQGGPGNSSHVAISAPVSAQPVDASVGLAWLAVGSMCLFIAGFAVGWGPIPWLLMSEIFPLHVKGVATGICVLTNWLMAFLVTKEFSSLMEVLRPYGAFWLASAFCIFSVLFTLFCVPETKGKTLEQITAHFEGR
As to the kind of experiment: Antagonist activity at human GLUT8 expressed in HEK293 cells transfected with GLUT1 shRNA assessed as inhibition of [3H]2-deoxy-D-glucose uptake preincubated for 5 mins followed by [3H]2-deoxy-D-glucose addition and measured after 6 mins. In kind it is cell-based.
Conditions: not given
In the case of `COc1ccc(C(=O)N(Cc2ccncc2)Cc2cccc(OCCc3ccc(F)cc3)c2)cc1`, the IC50 – broadly, the concentration needed to halve the response being measured – worked out at 6 µM.

Regarding `Oc1cccc(CNCc2ccncc2)c1`, the half-inhibitory concentration (IC50) was > 100 µM.

A further assay deals with T2, Solute carrier family 2, facilitated glucose transporter member 1 (Homo sapiens, UniProt P11166).
T2 sequence (P11166 whole entry): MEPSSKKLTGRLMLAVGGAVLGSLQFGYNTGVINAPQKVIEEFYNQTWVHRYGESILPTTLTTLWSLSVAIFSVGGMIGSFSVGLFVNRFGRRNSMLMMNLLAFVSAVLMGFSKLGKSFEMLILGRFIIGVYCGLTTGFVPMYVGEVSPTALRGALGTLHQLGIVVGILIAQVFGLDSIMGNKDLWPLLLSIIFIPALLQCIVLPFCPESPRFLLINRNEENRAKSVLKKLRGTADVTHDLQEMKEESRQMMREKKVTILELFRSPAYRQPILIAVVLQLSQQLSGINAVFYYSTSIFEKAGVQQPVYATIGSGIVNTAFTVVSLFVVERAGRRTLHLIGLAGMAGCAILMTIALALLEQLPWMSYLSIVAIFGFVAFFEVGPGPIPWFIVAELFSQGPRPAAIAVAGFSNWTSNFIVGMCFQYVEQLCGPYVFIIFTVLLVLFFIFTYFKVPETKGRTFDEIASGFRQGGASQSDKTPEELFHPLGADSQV
The experiment in a line: Antagonist activity at human GLUT1 expressed in HEK293 cells transfected with GLUT1 shRNA assessed as inhibition of [3H]2-deoxy-D-glucose uptake preincubated for 5 mins followed by [3H]2-deoxy-D-glucose addition and measured after 6 mins. In kind it is cell-based.
Conditions: not given
As for `COc1ccc(C(=O)N(Cc2ccncc2)Cc2cccc(OCCc3ccc(F)cc3)c2)cc1`, the IC50 is > 100 µM.

In the case of `Oc1cccc(CNCc2ccncc2)c1`, the half-maximal inhibitory concentration (IC50) was > 100 µM.

In the next assay the target is T3, Solute carrier family 2, facilitated glucose transporter member 4 (Homo sapiens, UniProt P14672).
T3 sequence (P14672 whole entry): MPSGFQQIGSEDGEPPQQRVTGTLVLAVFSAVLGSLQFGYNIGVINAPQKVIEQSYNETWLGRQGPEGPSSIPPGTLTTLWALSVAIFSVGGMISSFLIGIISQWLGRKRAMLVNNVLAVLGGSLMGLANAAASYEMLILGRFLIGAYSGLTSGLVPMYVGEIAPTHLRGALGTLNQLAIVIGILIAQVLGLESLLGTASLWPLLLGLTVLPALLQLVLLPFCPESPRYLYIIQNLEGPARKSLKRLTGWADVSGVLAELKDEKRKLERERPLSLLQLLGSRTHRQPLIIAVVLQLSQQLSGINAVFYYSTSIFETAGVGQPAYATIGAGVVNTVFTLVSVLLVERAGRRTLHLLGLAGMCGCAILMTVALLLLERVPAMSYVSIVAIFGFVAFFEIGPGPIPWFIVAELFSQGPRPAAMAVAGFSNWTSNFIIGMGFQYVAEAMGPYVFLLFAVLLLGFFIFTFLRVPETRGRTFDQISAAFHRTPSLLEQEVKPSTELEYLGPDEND
The experiment in a line: Antagonist activity at human GLUT4 expressed in HEK293 cells transfected with GLUT1 shRNA assessed as inhibition of [3H]2-deoxy-D-glucose uptake preincubated for 5 mins followed by [3H]2-deoxy-D-glucose addition and measured after 6 mins. In kind it is cell-based.
Conditions: not given
As for `COc1ccc(C(=O)N(Cc2ccncc2)Cc2cccc(OCc3cccc(OC)c3)c2)cc1`, the IC50 was 11 µM.

`COc1ccc(C(=O)N(Cc2ccncc2)Cc2cccc(OCCc3ccc(F)cc3)c2)cc1`: the half-inhibitory concentration (IC50) is 1.7 µM.

In the case of `Oc1cccc(CNCc2ccncc2)c1`, the half-inhibitory concentration (IC50) was determined as 20 µM.

In another assay the test system is KMS-11. As to the kind of experiment: Antiproliferative activity against human KMS11 cells over-expressing GFP after 72 hrs by CellTiter-Glo assay. It is filed as functional, cell-based. The conditions noted are these: KMS-11, 72 h. For orientation: In ATP-based viability assays light output follows the ATP content of the culture.
Consider `COc1ccc(C(=O)N(Cc2ccncc2)Cc2cccc(OCc3ccc([N+](=O)[O-])cc3)c2)cc1`, for which the IC50 worked out at 15.4 µM.

Regarding `COc1ccc(C(=O)N(Cc2ccncc2)Cc2cccc(OCC(=O)c3cccc(Br)c3)c2)cc1`, inhibition was half-maximal at 18.7 µM (IC50).

In turn, `COc1ccc(C(=O)N(Cc2ccncc2)Cc2cccc(OCCc3ccc(C)cc3)c2)cc1` had an IC50 of 9.1 µM.

Take `O=C(c1ccc(Cl)cc1)N(Cc1ccncc1)Cc1cccc(OCCc2ccc(F)cc2)c1`: the IC50 stood at 13.1 µM.

As to `COc1ccc(C(=O)N(Cc2ccncc2)Cc2cccc(OCc3cccc(OC)c3)c2)cc1`, the concentration for half-maximal inhibition (IC50) stood at 16.9 µM.

As for `COc1ccc(C(=O)N(Cc2ccncc2)Cc2cccc(OCCc3ccc(Br)cc3)c2)cc1`, inhibition was half-maximal at 8.4 µM (IC50).

Turning to `COc1ccc(C(=O)N(Cc2ccncc2)Cc2cccc(OCCc3cccc(C(F)(F)F)c3)c2)cc1`, half-maximal inhibition (IC50) required 8.9 µM.

`COc1ccc(C(=O)N(Cc2ccncc2)Cc2cccc(OCCc3ccccc3)c2)cc1`: inhibition was half-maximal at 16.9 µM (IC50).

In turn, `COc1ccc(C(=O)N(Cc2ccncc2)Cc2cccc(OCC3CCN(C(=O)OC(C)(C)C)CC3)c2)cc1` registered an IC50 of 5.1 µM.

As to `COc1ccc(C(=O)N(Cc2ccncc2)Cc2cccc(OCc3cccc([N+](=O)[O-])c3)c2)cc1`, 19.6 µM corresponded to half-maximal inhibition (IC50).

Take `COc1ccc(C(=O)N(Cc2ccncc2)Cc2cccc(OCC(=O)c3ccc(Cl)cc3)c2)cc1`: inhibition was half-maximal at 18.5 µM (IC50).

Turning to `COc1ccc(C(=O)N(Cc2ccncc2)Cc2cccc(OCc3ccc(C(F)(F)F)cc3)c2)cc1`, half-maximal inhibition (IC50) required 14.3 µM.

On to `COc1ccc(C(=O)N(Cc2ccncc2)Cc2cccc(OCC3CCOCC3)c2)cc1`, for which the IC50 is 17.7 µM.

Compound `COc1ccc(C(=O)N(Cc2ccncc2)Cc2cccc(OCC3CCCCC3)c2)cc1` yielded an IC50 of 19.7 µM.

On to `COc1ccc(C(=O)N(Cc2ccncc2)Cc2cccc(OCc3ccc(F)cc3)c2)cc1`, for which the half-maximal inhibitory concentration (IC50) came to 22.7 µM.

For the next assay, the target named is T4, Solute carrier family 2, facilitated glucose transporter member 4 (Rattus norvegicus, UniProt P19357).
T4 sequence (P19357 whole entry): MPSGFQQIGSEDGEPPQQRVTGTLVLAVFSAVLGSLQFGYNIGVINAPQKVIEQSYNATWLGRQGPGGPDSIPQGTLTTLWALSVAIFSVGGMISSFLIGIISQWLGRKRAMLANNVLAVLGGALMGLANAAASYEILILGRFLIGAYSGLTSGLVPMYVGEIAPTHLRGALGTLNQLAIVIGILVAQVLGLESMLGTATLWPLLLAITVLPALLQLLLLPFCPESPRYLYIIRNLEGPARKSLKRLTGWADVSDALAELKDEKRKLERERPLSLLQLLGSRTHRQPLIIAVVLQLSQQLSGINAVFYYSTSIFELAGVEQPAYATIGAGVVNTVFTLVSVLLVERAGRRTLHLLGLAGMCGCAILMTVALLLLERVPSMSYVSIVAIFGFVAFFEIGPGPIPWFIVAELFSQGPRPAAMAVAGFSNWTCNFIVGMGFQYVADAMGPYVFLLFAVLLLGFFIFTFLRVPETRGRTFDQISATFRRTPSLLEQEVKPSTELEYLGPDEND
As to the kind of experiment: Antagonist activity at GLUT4 in rat adipocytes assessed as reduction in insulin-stimulated [3H]2-deoxyglucose uptake preincubated for 1 min followed by [3H]2-deoxyglucose addition measured after 1 min by liquid scintillation counting analysis. It is filed as cell-based.
Conditions: not given
`CCOC(=O)[C@H](Cc1ccccc1)NC(=O)[C@H](Cc1ccccc1)NC(=O)[C@H](Cc1cnc[nH]1)NC(=O)OCc1ccccc1` (Cbz-His-Phe-Phe-OEt): the inhibition constant Ki (usually a measure of affinity in units of concentration, obtained from inhibition or displacement) was determined as 26 µM.

The target in the next assay is T5, Solute carrier family 2, facilitated glucose transporter member 1 (Rattus norvegicus) (UniProt P11167).
T5 sequence (whole entry): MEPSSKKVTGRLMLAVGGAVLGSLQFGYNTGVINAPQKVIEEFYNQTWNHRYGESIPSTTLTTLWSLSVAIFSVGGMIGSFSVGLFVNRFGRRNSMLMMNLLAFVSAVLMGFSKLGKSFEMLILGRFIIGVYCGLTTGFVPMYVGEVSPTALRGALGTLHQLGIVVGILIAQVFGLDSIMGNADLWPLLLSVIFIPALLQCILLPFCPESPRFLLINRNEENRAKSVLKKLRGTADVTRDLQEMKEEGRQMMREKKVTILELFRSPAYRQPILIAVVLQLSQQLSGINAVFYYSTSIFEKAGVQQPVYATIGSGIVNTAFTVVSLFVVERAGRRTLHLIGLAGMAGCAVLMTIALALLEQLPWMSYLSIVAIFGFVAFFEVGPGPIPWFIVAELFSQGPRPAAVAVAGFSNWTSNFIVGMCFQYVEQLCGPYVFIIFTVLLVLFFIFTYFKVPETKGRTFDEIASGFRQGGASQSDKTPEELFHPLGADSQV
The experiment in a line: Displacement of ATB-BMPA from rat C-terminal 6His/Myc-tagged GLUT1 expressed in HEK293 cell low density microsome at 20 uM preincubated for 10 mins followed by ATB-BMPA addition measured after 10 mins. In kind it is cell-based.
Conditions: not given
For the compound `COc1ccc(C(=O)N(Cc2ccncc2)Cc2cccc(OCCc3ccc(F)cc3)c2)cc1`, the outcome was Active.

A further assay concerns the target T6, Solute carrier family 2, facilitated glucose transporter member 4 (Rattus norvegicus) (UniProt P19357).
T6 sequence (whole entry): T4 sequence (P19357 whole entry)
The experiment in a line: Displacement of ATB-BMPA from rat C-terminal 6His/Myc-tagged GLUT4 expressed in HEK293 cell low density microsome at 20 uM preincubated for 10 mins followed by ATB-BMPA addition measured after 10 mins. In kind it is cell-based.
Conditions: not given
Turning to `COc1ccc(C(=O)N(Cc2ccncc2)Cc2cccc(OCCc3ccc(F)cc3)c2)cc1`, the result was Active.
